# Numbers after ± are expanded uncertainties.
# Assay: xn = mol fraction of the nth substance listed
# Details: Liquid, x1 = 1; for mass density: Vibrating tube method; for viscosity: Concentric cylinders viscometry
smiles,measurement,setting,value
CCC(C)O (stereo unspecified) [butan-2-ol] + Cc1ccc(C)c(C)c1,mass density,"273.15 K, 100 kPa",822.3 ± 0.7 kg/m3
same,mass density,"273.15 K, 1000 kPa",822.7 ± 0.7 kg/m3
same,mass density,"273.15 K, 2000 kPa",823.4 ± 0.7 kg/m3
same,mass density,"273.15 K, 5000 kPa",825.4 ± 0.7 kg/m3
same,mass density,"273.15 K, 10000 kPa",828.7 ± 0.7 kg/m3
same,mass density,"273.15 K, 15000 kPa",831.8 ± 0.7 kg/m3
same,mass density,"273.15 K, 20000 kPa",834.7 ± 0.7 kg/m3
same,mass density,"273.15 K, 30000 kPa",840.4 ± 0.8 kg/m3
same,mass density,"273.15 K, 40000 kPa",845.7 ± 0.8 kg/m3
same,mass density,"273.15 K, 50000 kPa",850.7 ± 0.8 kg/m3
same,mass density,"273.15 K, 60000 kPa",855.4 ± 0.8 kg/m3
same,mass density,"273.15 K, 70000 kPa",859.9 ± 0.8 kg/m3
same,mass density,"273.15 K, 80000 kPa",864.3 ± 0.8 kg/m3
same,mass density,"273.15 K, 90000 kPa",868.4 ± 0.9 kg/m3
same,mass density,"273.15 K, 100000 kPa",872.4 ± 0.9 kg/m3
same,mass density,"273.15 K, 110000 kPa",876.3 ± 0.9 kg/m3
same,mass density,"273.15 K, 120000 kPa",879.9 ± 0.9 kg/m3
same,mass density,"273.15 K, 130000 kPa",883.5 ± 0.9 kg/m3
same,mass density,"273.15 K, 140000 kPa",887.2 ± 0.9 kg/m3
same,viscosity,"293.15 K, 100 kPa",3.725 ± 0.076 mPa·s
same,mass density,"293.15 K, 100 kPa",806.3 ± 0.7 kg/m3
same,mass density,"293.15 K, 1000 kPa",807 ± 0.7 kg/m3
same,mass density,"293.15 K, 2000 kPa",807.8 ± 0.7 kg/m3
same,mass density,"293.15 K, 5000 kPa",810 ± 0.7 kg/m3
same,mass density,"293.15 K, 10000 kPa",813.6 ± 0.7 kg/m3
same,mass density,"293.15 K, 15000 kPa",817 ± 0.7 kg/m3
same,mass density,"293.15 K, 20000 kPa",820.2 ± 0.7 kg/m3
same,mass density,"293.15 K, 30000 kPa",826.5 ± 0.8 kg/m3
same,mass density,"293.15 K, 40000 kPa",832.3 ± 0.8 kg/m3
same,mass density,"293.15 K, 50000 kPa",837.7 ± 0.8 kg/m3
same,mass density,"293.15 K, 60000 kPa",842.8 ± 0.8 kg/m3
same,mass density,"293.15 K, 70000 kPa",847.7 ± 0.8 kg/m3
same,mass density,"293.15 K, 80000 kPa",852.3 ± 0.9 kg/m3
same,mass density,"293.15 K, 90000 kPa",856.7 ± 0.9 kg/m3
same,mass density,"293.15 K, 100000 kPa",860.9 ± 0.9 kg/m3
same,mass density,"293.15 K, 110000 kPa",865 ± 0.9 kg/m3
same,mass density,"293.15 K, 120000 kPa",868.8 ± 1 kg/m3
same,mass density,"293.15 K, 130000 kPa",872.7 ± 1 kg/m3
same,mass density,"293.15 K, 140000 kPa",876.3 ± 1 kg/m3
same,viscosity,"303.15 K, 100 kPa",2.555 ± 0.053 mPa·s
same,viscosity,"313.15 K, 100 kPa",1.814 ± 0.038 mPa·s
same,mass density,"313.15 K, 100 kPa",789.4 ± 0.7 kg/m3
same,mass density,"313.15 K, 1000 kPa",790.1 ± 0.7 kg/m3
same,mass density,"313.15 K, 2000 kPa",791 ± 0.7 kg/m3
same,mass density,"313.15 K, 5000 kPa",793.5 ± 0.7 kg/m3
same,mass density,"313.15 K, 10000 kPa",797.5 ± 0.7 kg/m3
same,mass density,"313.15 K, 15000 kPa",801.4 ± 0.7 kg/m3
same,mass density,"313.15 K, 20000 kPa",805.1 ± 0.7 kg/m3
same,mass density,"313.15 K, 30000 kPa",811.9 ± 0.8 kg/m3
same,mass density,"313.15 K, 40000 kPa",818.3 ± 0.8 kg/m3
same,mass density,"313.15 K, 50000 kPa",824.1 ± 0.8 kg/m3
same,mass density,"313.15 K, 60000 kPa",829.6 ± 0.8 kg/m3
same,mass density,"313.15 K, 70000 kPa",835 ± 0.9 kg/m3
same,mass density,"313.15 K, 80000 kPa",839.9 ± 0.9 kg/m3
same,mass density,"313.15 K, 90000 kPa",844.6 ± 0.9 kg/m3
same,mass density,"313.15 K, 100000 kPa",849 ± 0.9 kg/m3
same,mass density,"313.15 K, 110000 kPa",853.3 ± 1 kg/m3
same,mass density,"313.15 K, 120000 kPa",857.5 ± 1 kg/m3
same,mass density,"313.15 K, 130000 kPa",861.5 ± 1 kg/m3
same,mass density,"313.15 K, 140000 kPa",865.4 ± 1 kg/m3
same,viscosity,"323.15 K, 100 kPa",1.331 ± 0.028 mPa·s
same,viscosity,"333.15 K, 100 kPa",1.007 ± 0.021 mPa·s
same,mass density,"333.15 K, 100 kPa",770.7 ± 0.7 kg/m3
same,mass density,"333.15 K, 1000 kPa",771.6 ± 0.7 kg/m3
same,mass density,"333.15 K, 2000 kPa",772.6 ± 0.7 kg/m3
same,mass density,"333.15 K, 5000 kPa",775.5 ± 0.7 kg/m3
same,mass density,"333.15 K, 10000 kPa",780.1 ± 0.7 kg/m3
same,mass density,"333.15 K, 15000 kPa",784.4 ± 0.7 kg/m3
same,mass density,"333.15 K, 20000 kPa",788.6 ± 0.7 kg/m3
same,mass density,"333.15 K, 30000 kPa",796.2 ± 0.8 kg/m3
same,mass density,"333.15 K, 40000 kPa",803.2 ± 0.8 kg/m3
same,mass density,"333.15 K, 50000 kPa",809.6 ± 0.8 kg/m3
same,mass density,"333.15 K, 60000 kPa",815.7 ± 0.9 kg/m3
same,mass density,"333.15 K, 70000 kPa",821.4 ± 0.9 kg/m3
same,mass density,"333.15 K, 80000 kPa",826.7 ± 0.9 kg/m3
same,mass density,"333.15 K, 90000 kPa",831.8 ± 0.9 kg/m3
same,mass density,"333.15 K, 100000 kPa",836.6 ± 1 kg/m3
same,mass density,"333.15 K, 110000 kPa",841.2 ± 1 kg/m3
same,mass density,"333.15 K, 120000 kPa",845.5 ± 1 kg/m3
same,mass density,"333.15 K, 130000 kPa",849.8 ± 1.1 kg/m3
same,mass density,"333.15 K, 140000 kPa",853.9 ± 1.1 kg/m3
